Test results reported in EP1117659B1, “SUBSTITUTED 3-CYANOQUINOLINES AS PROTEIN TYROSINE KINASES INHIBITORS” (Wyeth Holdings Corporation, priority 1998, dated 2000).
Converted amounts (≈) assume the structure as drawn. “And” between values parts separate entries of the source, which are not always exact repeats. Equal entries are not always repeated. Structures can show the parent of a compound that is named as a salt. Where two headings read alike, the source gives them in different places.

What was measured:
[1] = target: Epithelial Cell Kinase (ECK) (Homo sapiens, UniProt P29317); assay: Inhibition of Epithelial Cell Kinase (ECK), immobilized biotinylated peptide, HRP anti-phosphotyrosine readout; type: biochemical; conditions: IC50, substrate phosphorylation
Chain of Epithelial Cell Kinase (ECK) (P29317 24-976, species assumed): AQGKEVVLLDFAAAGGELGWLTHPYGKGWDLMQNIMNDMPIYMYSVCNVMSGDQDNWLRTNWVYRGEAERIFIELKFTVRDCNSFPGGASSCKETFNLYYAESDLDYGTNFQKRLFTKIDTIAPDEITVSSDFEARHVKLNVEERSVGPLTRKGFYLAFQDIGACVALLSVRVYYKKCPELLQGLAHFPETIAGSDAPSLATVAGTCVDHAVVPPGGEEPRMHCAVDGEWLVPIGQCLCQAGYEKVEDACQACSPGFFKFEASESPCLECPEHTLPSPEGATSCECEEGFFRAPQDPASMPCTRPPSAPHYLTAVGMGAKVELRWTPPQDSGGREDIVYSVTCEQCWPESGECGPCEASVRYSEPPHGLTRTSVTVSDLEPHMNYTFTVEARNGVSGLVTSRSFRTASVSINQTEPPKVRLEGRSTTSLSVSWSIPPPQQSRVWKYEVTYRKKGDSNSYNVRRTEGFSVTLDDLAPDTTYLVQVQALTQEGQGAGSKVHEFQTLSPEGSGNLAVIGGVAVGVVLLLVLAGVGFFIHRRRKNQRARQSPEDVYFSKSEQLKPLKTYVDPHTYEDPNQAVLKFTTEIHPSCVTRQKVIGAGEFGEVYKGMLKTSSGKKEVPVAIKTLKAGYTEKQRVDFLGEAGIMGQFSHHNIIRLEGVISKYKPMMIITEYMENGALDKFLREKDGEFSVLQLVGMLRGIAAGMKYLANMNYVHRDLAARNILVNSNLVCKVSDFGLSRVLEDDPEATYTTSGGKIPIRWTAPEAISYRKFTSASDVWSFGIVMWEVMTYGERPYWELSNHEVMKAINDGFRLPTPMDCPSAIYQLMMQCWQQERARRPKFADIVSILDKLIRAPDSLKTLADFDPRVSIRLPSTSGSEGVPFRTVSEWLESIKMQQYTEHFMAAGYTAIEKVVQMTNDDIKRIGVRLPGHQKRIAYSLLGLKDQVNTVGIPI
Protocol: In this standard pharmacological test procedure, a biotinylated peptide substrate is first immobilized on neutravidin-coated microtiter plates. The test drug, the Epithelial Cell Kinase (ECK), Mg^++, sodium vanadate (a protein tyrosine phosphatase inhibitor), and an appropriate buffer to maintain pH (7.2) are then added to the immobilized substrate-containing microtiter wells. ATP is then added to initiate phosphorylation. After incubation, the assay plates are washed with a suitable buffer leaving behind phosphorylated peptide which is exposed to horse radish peroxidase (HRP)-conjugated anti-phosphotyrosine monoclonal antibody. The antibody-treated plates are washed again and the HRP activity in individual wells is quantified as a reflection of degree of substrate phosphorylation. […] Multiple entries for a given compound indication it was tested multiple times.

[2] = target: T1, Kinase insert Domain containing Receptor (KDR: the catalytic domain of the VEGF receptor) (Homo sapiens, UniProt P35968); assay: Inhibition of Kinase insert Domain containing Receptor (KDR), radioactive phosphorylation of Glu:Tyr copolymer; type: biochemical; conditions: IC50, substrate phosphorylation
T1 construct: KDR: the catalytic domain of the VEGF receptor
T1 sequence (P35968 834-1162 limits assumed): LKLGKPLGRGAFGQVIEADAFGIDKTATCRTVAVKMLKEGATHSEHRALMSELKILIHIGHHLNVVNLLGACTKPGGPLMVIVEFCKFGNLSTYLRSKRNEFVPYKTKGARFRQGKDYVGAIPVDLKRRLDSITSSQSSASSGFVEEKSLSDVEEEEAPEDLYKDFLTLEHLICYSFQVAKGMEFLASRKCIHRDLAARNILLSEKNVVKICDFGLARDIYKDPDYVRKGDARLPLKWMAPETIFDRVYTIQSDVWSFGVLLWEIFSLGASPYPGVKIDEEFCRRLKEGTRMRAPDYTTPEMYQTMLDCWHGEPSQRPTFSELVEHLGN
Protocol: In this standard pharmacological test procedure, KDR protein is mixed, in the presence or absence of a inhibitor compound, with a substrate peptide to be phosphorylated (a copolymer of glutamic acid and tyrosine, E:Y :: 4:1) and other cofactors such as Mg^++ and sodium vanadate (a protein tyrosine phosphatase inhibitor) in an appropriate buffer to maintain pH (7.2). ATP and a radioactive tracer (either P^32- or P^33- labeled ATP) is then add to initiate phosphorylation. After incubation, the radioactive phosphate associated with the acid-insoluble fraction of the assay mixture is then quantified as reflection of substrate phosphorylation. […] Multiple entries for a given compound indication it was tested multiple times.

[3] = target: T2, epidermal growth factor receptor kinase (EGF-R Kinase, recombinant enzyme; His-tagged cytoplasmic domain of EGFR) (Homo sapiens, UniProt P00533); assay: Inhibition of Epidermal Growth Factor Receptor Kinase (EGF-R) using recombinant enzyme, RR-SRC peptide phosphorylation, 33P-ATP; type: biochemical; conditions: for inhibition at 0.5 µM: read-out: %Inh @ 0.5 µM; for IC50: recombinant enzyme, 90 min at room temperature
T2 construct: EGFR cDNA encoding amino acids 645 - 1186 preceded by Met-Ala-(His)6; Met-Ala-(His)6 (N); made in house; host or cells: Sf9 insect cells, recombinant baculovirus vHcEGFR52
T2 sequence (P00533 669-1210): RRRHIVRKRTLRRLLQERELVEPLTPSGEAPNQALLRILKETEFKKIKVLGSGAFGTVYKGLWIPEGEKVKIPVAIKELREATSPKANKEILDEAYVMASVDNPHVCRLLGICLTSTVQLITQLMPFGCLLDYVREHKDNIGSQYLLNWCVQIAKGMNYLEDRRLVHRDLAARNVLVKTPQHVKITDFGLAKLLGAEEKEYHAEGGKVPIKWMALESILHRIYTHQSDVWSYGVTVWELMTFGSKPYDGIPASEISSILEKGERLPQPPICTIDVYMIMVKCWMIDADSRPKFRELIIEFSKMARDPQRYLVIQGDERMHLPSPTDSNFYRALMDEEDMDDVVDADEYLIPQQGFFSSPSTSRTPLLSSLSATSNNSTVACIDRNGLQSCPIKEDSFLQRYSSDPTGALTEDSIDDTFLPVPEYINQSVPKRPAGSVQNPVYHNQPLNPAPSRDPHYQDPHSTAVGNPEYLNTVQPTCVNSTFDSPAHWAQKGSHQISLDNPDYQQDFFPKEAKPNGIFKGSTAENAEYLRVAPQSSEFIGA
Protocol: Representative test compounds were evaluated for their ability to inhibit the phosphorylation of the tyrosine residue of a peptide substrate catalyzed by the enzyme epidermal growth factor receptor kinase. The peptide substrate (RR-SRC) has the sequence arg-arg-leu-ile-glu-asp-ala-glu-tyr-ala-ala-arg-gly. The enzyme used in this test procedure is the His-tagged cytoplasmic domain of EGFR. A recombinant baculovirus (vHcEGFR52) was constructed containing the EGFR cDNA encoding amino acids 645 - 1186 preceded by Met-Ala-(His)6. Sf9 cells in 100 mm plates were infected at an moi of 10 pfu/cell and cells were harvested 48 h post infection. A cytoplasmic extract was prepared using 1% Triton X-100 and applied to Ni-NTA column. After washing the column with 20 mM imidazole, HcEGFR was eluted with 250 mM imidazole (in 50 mM Na2HPO4, pH 8.0, 300 mM NaCl). Fractions collected were dialyzed against 10 mM HEPES, pH 7.0, 50 mM NaCl, 10% glycerol, lug/mL antipain and leupeptin and 0.1 mM Pefabloc SC. The protein was frozen in dry ice/methanol and stored -70°C.
Test compounds were made into 10 mg/mL stock solutions in 100% dimethylsulfoxide (DMSO). Prior to experiment, stock solutions were diluted to 500 uM with 100% DMSO and then serially diluted to the desired concentration with HEPES buffer (30 mM HEPES pH 7.4).
For the enzyme reaction, 10 uL of each inhibitor (at various concentrations) were added to each well of a 96-well plate. To this was added 3 uL of enzyme (1:10 dilution in 10mM HEPES, pH 7.4 for final cone. of 1:120). This was allowed to sit for 10 min on ice and was followed by the addition of 5 ul peptide (80 uM final cone.), 10ul of 4X Buffer (Table A), 0.25 uL ^33P-ATP and 12 uL H2O. The reaction was allowed to run for 90 min at room temperature and was followed by spotting the entire volume on to precut P81 filter papers. The filter discs were washed 2X with 0.5% phosphoric acid and radioactivity was measured using a liquid scintillation counter.
The inhibition data for representative compounds of the invention are shown below in TABLE 1. […] The % inhibition of the test compound was determined for at least three different concentrations and the IC50 value was evaluated from the dose response curve. […] CPM(control) is in units of counts per minute and was a number expressing the amount of radiolabled ATP (γ-^33P) incorporated into the RR-SRC peptide substrate by the enzyme after 90 minutes at room temperature in the absence of test compound as measured by liquid scintillation counting. The CPM values were corrected for the background counts produced by ATP in the absence of the enzymatic reaction. […]

[4] = target: Recombinant human MEK 1 (MAPKK) / recombinant human ERK2 (MAPK) (Mek-Erk) (Homo sapiens, UniProt P28482+Q02750); assay: Mitogen Activated Protein Kinase (MAPK) assay, two component coupled Mek-Erk test; type: biochemical
Chain of Recombinant human MEK 1 (MAPKK) / recombinant human ERK2 (MAPK) (Mek-Erk) (P28482 2-360): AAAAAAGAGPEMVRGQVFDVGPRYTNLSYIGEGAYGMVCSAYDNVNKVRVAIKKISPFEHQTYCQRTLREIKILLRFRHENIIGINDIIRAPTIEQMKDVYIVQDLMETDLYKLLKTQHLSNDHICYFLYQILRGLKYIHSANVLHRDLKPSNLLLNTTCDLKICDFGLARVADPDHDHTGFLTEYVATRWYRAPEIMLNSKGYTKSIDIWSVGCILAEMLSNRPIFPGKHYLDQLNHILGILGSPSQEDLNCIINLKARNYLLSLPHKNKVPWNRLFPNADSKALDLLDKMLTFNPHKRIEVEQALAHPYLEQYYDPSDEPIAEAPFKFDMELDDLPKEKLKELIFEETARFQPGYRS
Chain of Recombinant human MEK 1 (MAPKK) / recombinant human ERK2 (MAPK) (Mek-Erk) (Q02750 whole entry): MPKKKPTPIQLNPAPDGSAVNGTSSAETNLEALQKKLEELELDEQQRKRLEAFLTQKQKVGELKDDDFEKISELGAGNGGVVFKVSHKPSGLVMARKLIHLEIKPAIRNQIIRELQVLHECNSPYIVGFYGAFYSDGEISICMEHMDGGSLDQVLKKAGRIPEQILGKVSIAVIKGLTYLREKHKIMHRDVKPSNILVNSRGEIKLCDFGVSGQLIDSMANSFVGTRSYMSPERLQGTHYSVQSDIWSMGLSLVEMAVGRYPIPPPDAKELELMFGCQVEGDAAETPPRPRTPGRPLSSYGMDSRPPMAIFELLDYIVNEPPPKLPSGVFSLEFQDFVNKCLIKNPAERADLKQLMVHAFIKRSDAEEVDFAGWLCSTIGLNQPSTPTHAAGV

[5] = test system: 3T3; assay: Inhibition of Cancer Cell Growth as Measured by Cell Number (Sulforhodamine B); type: cell-based; conditions: 48 hours exposure; for IC50: Mus musculus, NIH3T3
Protocol: (§1) Human tumor cell lines were plated in 96-well plates (250 µl/well, 1-6 x 10^4 cells/ml) in RPMI 1640 medium, containing 5% FBS (Fetal Bovine Serum). […] After 48 hours exposure to test compounds, cells were fixed with trichloroacetic acid, and stained with Sulforhodamine B. After washing with trichloroacetic acid, bound dye was solubilized in 10 mM Tris base and optical density was determined using plate reader. Under conditions of the assay the optical density is proportional to the number of cells in the well. […] The test procedure is described in details by Philip Skehan et. al, J.Natl. Canc. Inst., 82, 1107-1112 (1990). […] Information about some of the cell lines used in these test procedures is available from the American Type Tissue Collection: Cell Lines and Hybridomas, 1994 Reference Guide, 8th Edition.

[6] = test system: 3T3/c-erbb2; assay: as above; type: cell-based; conditions: 48 hours exposure
Protocol: as §1

[7] = test system: SK-BR3; assay: as above; type: cell-based, Human; conditions: 48 hours exposure; for IC50: Homo sapiens, SK-BR-3, 48 h
Protocol: as §1

[8] = test system: A431; assay: as above; type: cell-based, Human; conditions: 48 hours exposure; for IC50: Homo sapiens, A-431, 48 h
Protocol: as §1

[9] = test system: SW620; assay: as above; type: cell-based, Human; conditions: 48 hours exposure; for IC50: Homo sapiens, SW-620, 48 h
Protocol: as §1

[10] = test system: MDA-MB-435; assay: as above; type: cell-based, Human; conditions: 48 hours exposure; for IC50: Homo sapiens, MDA-MB-435, 48 h
Protocol: as §1

Row | Molecule | IC50 [1] | IC50 [2] | inhibition at 0.5 µM [3] | IC50 [3] | IC50 ([4]; read-out: Mek-Erk) | also measured
1 | COc1cccc2c(Nc3ccc4nn[nH]c4c3)c(C#N)cnc12 [Example 149, 4-(3H -benzotriazol-5-ylamino)-8-methoxy-quinoline-3-carbonitrile] | > 31.6 µM | > 94.8 µM | 9% | > 1 µM |  | IC50 ([4]; read-out: Mek-Erk µM): > 100 µM
2 | COc1cc2ncc(C#N)c(Nc3cccc4ncccc34)c2cc1OC [Example 132, 6,7-Dimethoxy-4-(quinolin-5-ylamino)-quinoline-3-carbonitrile] | > 28.1 µM | > 28.1 µM | 0% | > 1 µM | 90 µM | 
3 | 4-(2,3-Dihydro-benzo[1,4]dioxin-6-ylamino)-6,7-diethoxy-quinoline-3-carbonitrile [Example 105] | > 51.1 µM | 76.6 µM |  |  |  | IC50 µg/mL 3T3 [5]: 0.853 µg/mL; IC50 µg/mL 3T3/c-erbb2 [6]: 0.375 µg/mL; IC50 µg/mL SK-BR3 [7]: 0.281 µg/mL; IC50 µg/mL A431 [8]: 0.270 µg/mL; IC50 µg/mL SW620 [9]: 0.411 µg/mL; IC50 µg/mL MDA-MB-435 [10]: 0.235 µg/mL
4 | COc1cc2c(Nc3ccc4nn[nH]c4c3)c(C#N)cnc2c(OC)c1OC [Example 156, 4-(3H-Benzotriazol-5-ylamino)-6,7,8-Trimethoxy-quinoline-3-carbonitrile] | > 26.6 µM | > 79.7 µM | 34% | > 1 µM |  | IC50 ([4]; read-out: Mek-Erk µM): 35 µM
5 | COc1cc2ncc(C#N)c(Nc3cccc4cccnc34)c2cc1OC [Example 134, 6,7-Dimethoxy-4-(quinolin-8-ylamino)-quinoline-3-carbonitrile] | > 28.1 µM | > 28.1 µM | 35% | > 1 µM | > 100 µM | 
6 | CCOc1cc2ncc(C#N)c(Nc3ccc4c(c3)CCC4)c2cc1OCC [Example 108, 6,7-Diethoxy-4-(indan-5-ylamino)-quinoline-3-carbonitrile] | > 2.68 µM | > 80.3 µM |  |  |  | IC50 [5]: 0.525 µg/mL (≈ 1.41 µM); IC50 [6]: 0.0198 µg/mL (≈ 0.053 µM); IC50 [7]: 0.294 µg/mL (≈ 0.787 µM); IC50 [8]: 0.342 µg/mL (≈ 0.916 µM); IC50 [9]: < 0.0005 µg/mL; IC50 [10]: 0.352 µg/mL (≈ 0.943 µM)
7 | COc1ccc2ncc(C#N)c(Nc3ccc4cn[nH]c4c3)c2c1 [Example 141, 4-(1H -Indazol 6-ylamino)-6-methoxy-quinoline-3-carbonitrile] | > 31.7 µM | 63.4 µM | 5.5% | > 1 µM | 1.1 µM and 2 µM | 
8 | COc1cc2ncc(C#N)c(Nc3cccc4cnccc34)c2cc1OC [Example 133, 4-(Isoquinolin-5-ylamino)-6,7-dimethoxy-quinoline-3-carbonitrile] | > 28.1 µM | > 28.1 µM | 0% | > 1 µM | 90 µM | 
9 | COCCOc1cc2ncc(C#N)c(Nc3ccc4cn[nH]c4c3)c2cc1OCCOC [Example 106, 4-(1H-Indazol-6-ylamino)-6,7-bis-(2-methoxy-ethoxy)-quinoline-3-carbonitrile] | > 46.1 µM | 23.1 µM |  |  |  | IC50 [5]: > 5 µg/mL; IC50 [6]: > 5 µg/mL; IC50 [7]: > 5 µg/mL; IC50 [8]: 1.96 µg/mL (≈ 4.52 µM); IC50 [9]: > 5 µg/mL; IC50 [10]: 2.04 µg/mL (≈ 4.72 µM)
10 | CCOc1cc2ncc(C#N)c(Nc3ccc4ncsc4c3)c2cc1OCC [Example 97, 4-(Benzothiazol-6-ylamino)-6,7-diethoxy-quinoline-3-carbonitrile HCl Salt] | > 2.56 µM | > 2.56 µM | 7% | > 10 µM |  | IC50 ([4]; read-out: Mek-Erk µM): 55 µM
11 | COc1cc2ncc(C#N)c(Nc3ccc4sc(C)nc4c3)c2cc1OC [Example 130, 6,7-Dimethoxy-4-(2-methyl-benzothiazol-5-ylamino)-quinoline-3-carbonitrile] | > 26.6 µM | > 26.6 µM | 5% | > 1 µM | > 100 µM | 
12 | COc1cc2ncc(C#N)c(Nc3ccc4[nH]c(=O)sc4c3)c2cc1OC [Example 131, 6,7-Dimethoxy-4-(2-oxo-2,3-dihydro-benzothiazol-6-ylamino)-quinoline-3-carbonitrile] | > 26.4 µM | > 26.4 µM | 0% | > 1 µM | > 100 µM | 
13 | COc1cccc2c(Nc3ccc4cn[nH]c4c3)c(C#N)cnc12 [Example 148, 4-(1H -Indazol-6-ylamino)-8-methoxy-quinoline-3-carbonitrile] | > 63.4 µM | > 95.1 µM | 11% | > 1 µM | > 100 µM | 
14 | COc1cc2ncc(C#N)c(Nc3ccc(O)c4ncccc34)c2cc1OC [Example 135, 4-(8-Hydroxy-quinolin-5-ylamino)-6,7-dimethoxy-quinoline-3-carbonitrile] | 0.537 µM | 26.9 µM | 0% | > 1 µM | > 100 µM | 
15 | COc1cc2ncc(C#N)c(Nc3ccc4c(C)cc(=O)[nH]c4c3)c2cc1OC [Example 129, 6,7-Dimethoxy-4-(4-methyl-2-oxo-1,2-dihydro-quinolin-7-ylamino)-quinoline-3-carbonitrile] | > 25.9 µM | > 25.9 µM | 6.7% | > 1 µM | > 100 µM | 
16 | COc1ccc2c(Nc3ccc4nn[nH]c4c3)c(C#N)cnc2c1 [Example 144, 4-(3H -benzotriazol-5-ylamino)-7-methoxy-quinoline-3-carbinitile] | > 31.6 µM | > 94.8 µM and 94.8 µM | 14% | > 1 µM |  | IC50 ([4]; read-out: Mek-Erk µM): > 100 µM
17 | COc1ccc2ncc(C#N)c(Nc3ccc4nn[nH]c4c3)c2c1 [Example 142, 4-(3H -Benzotriazol-5-ylamino)-6-methoxy-quinoline-3-carbonitrile] | > 31.6 µM | 94.8 µM | 24% | > 1 µM | 30 µM | 
